# Source: patent publication US9328158B2, “H. pylori lipopolysaccharide outer core epitope” (National Research Council of Canada, priority 2009, dated 2016)
# Target: 1C4F9 mAb
# Assay: Inhibition ELISA of 1C4F9 mAb binding to adsorbed LPS
# Set-up: species or system mouse
# Conditions: Concentration of the oligosaccharide or LPS required for 50% inhibition; purified 1C4F9
# Description: Studies of the specificity of the glucan-specific antibody were carried out using a series of linear oligosaccharides consisting of consecutive α1,6-linked glucose residues Glc→[α(1→6)Glc]n=1-6 and selective purified H. pylori LPS. For inhibition ELISA, serial dilutions of linear α1,6-linked glucose-containing oligosaccharides from isomalto-series [Glcα1→(6Glcα1→)n=1-6] (USBIOLOGICALS™, Swampscott, […].) or H. pylori 26695, O:3 and PJ2 LPS inhibitors were prepared and mixed with previously prepared dilutions of purified 1 C4F9 that gave an OD450=1. […] After this step, the indirect ELISA procedure was followed as described in Example 6.
row,Compound,IC50
1,OCC1OC(OCC2OC(OCC3OC(OCC4OC(OCC5OC(OCC6OC(OCC7OC(O)C(O)C(O)C7O)C(O)C(O)C6O)C(O)C(O)C5O)C(O)C(O)C4O)C(O)C(O)C3O)C(O)C(O)C2O)C(O)C(O)C1O (centres unmarked) [Isomaltoheptaose],210 µg/mL
2,OCC1OC(OCC2OC(OCC3OC(OCC4OC(OCC5OC(OCC6OC(O)C(O)C(O)C6O)C(O)C(O)C5O)C(O)C(O)C4O)C(O)C(O)C3O)C(O)C(O)C2O)C(O)C(O)C1O (centres unmarked) [Isomaltohexaose],290 µg/mL
3,OCC1OC(OCC2OC(OCC3OC(OCC4OC(OCC5OC(O)C(O)C(O)C5O)C(O)C(O)C4O)C(O)C(O)C3O)C(O)C(O)C2O)C(O)C(O)C1O (centres unmarked) [Isomaltopentaose],460 µg/mL
4,OCC1OC(OCC2OC(OCC3OC(OCC4OC(O)C(O)C(O)C4O)C(O)C(O)C3O)C(O)C(O)C2O)C(O)C(O)C1O (centres unmarked) [Isomaltotetraose],"1,600 μg/mL"
5,OCC1OC(OCC2OC(OCC3OC(O)C(O)C(O)C3O)C(O)C(O)C2O)C(O)C(O)C1O (centres unmarked) [Isomaltotriose],"10,000 μg/mL"
